# Reference: patent US6924251B1, “Substituted benzoylcyclohexandiones” (Bayer Aktiengesellschaft, priority 1998, dated 2005)
# Test: logP determination by HPLC (reversed-phase C18), EEC Directive 79/831 Annex V.A8
# Conditions: Table 3, compounds of formula (IV); labelled a): acidic range, 0.1% aqueous phosphoric acid, acetonitrile, linear gradient 10% to 90% acetonitrile; 43° C.
row,Compound,logP
1,CCOC(=O)c1ccc(C(F)(F)F)cc1CN1C(=O)c2ccccc2C1=O [IV-87],logP = 3.80^a)
2,CCOC(=O)c1ccc(Br)cc1Cn1nc(CC)n(OCC)c1=O [IV-34],logP = 3.24^a)
3,COC(=O)c1ccc(Cl)c(Cn2nc(C)n(C3CC3)c2=O)c1Cl [IV-20],m.p.: 135 °C logP = 1.97^a)
4,CCOC(=O)c1ccc(C(F)(F)F)cc1Cn1nc(OCC)n(C2CC2)c1=O [IV-47],logP = 3.48^a)
5,CCCOc1nn(Cc2cc(C(F)(F)F)ccc2C(=O)OCC)c(=O)n1C [IV-71],logP = 3.54^a)
6,CCOC(=O)c1ccc(Cl)cc1Cn1nc(OCC)n(C2CC2)c1=O [IV-42],logP = 3.23^a)
7,CCOC(=O)c1ccc(Br)cc1Cn1nc(N(C)C)n(C)c1=O [IV-82],logP = 2.60^a)
8,CCOc1nn(Cc2cc(C(F)(F)F)ccc2C(=O)OC)c(=O)n1C [IV-117],logP = 2.74^a)
9,CCOC(=O)c1ccc(C(F)(F)F)cc1Cn1c(=O)n(C)c(=O)n1C [IV-113],logP = 2.58^a)
10,COC(=O)c1ccc(C(F)(F)F)cc1Cn1nc(SC)n(C)c1=O [IV-118],logP = 2.65^a)
11,CCOC(=O)c1ccc(C(F)(F)F)cc1Cn1nc(COC)n(C2CC2)c1=O [IV-77],logP = 2.88^a)
12,COC(=O)c1ccc(Cl)c(Cn2nc(N(C)C)n(C3CC3)c2=O)c1Cl [IV-21],m.p.: 143 °C logP = 2.42^a)
13,COC(=O)c1ccc(Cl)c(Cn2ncn(C)c2=O)c1Cl [IV-10],m.p.: 158 °C logP = 1.55^a)
14,COC(=O)c1ccc(Cl)c(Cn2nc(SC)n(C)c2=O)c1Cl [IV-3],m.p.: 229 °C logP = 2.27^a)
15,CCOC(=O)c1ccc(S(C)(=O)=O)cc1CN1C(=O)CCC1=O [IV-33],logP = 1.53^a)
16,CCOC(=O)c1ccc(F)cc1Cn1nc(COC)n(C)c1=O [IV-96],logP = 2.05^a)
17,CCOC(=O)c1ccc(C(F)(F)F)cc1CN1N=C(C)C(C)(C)C1=O [IV-99],logP = 2.91^a)
18,CCOC(=O)c1ccc(Br)cc1Cn1nc(OCC)n(C)c1=O [IV-58],logP = 2.95^a)
19,COC(=O)c1ccc(Cl)c(Cn2nc(N(C)C)n(C)c2=O)c1Cl [IV-12],m.p.: 126 °C logP = 2.11^a)
20,COC(=O)c1ccc(Cl)c(Cn2nc(OC(C)C)n(C3CC3)c2=O)c1Cl [IV-17],m.p.: 56 °C logP = 3.08^a)
21,CCOC(=O)c1ccc(Br)cc1Cn1nc(C)oc1=O [IV-73],logP = 2.88^a)
22,CCOC(=O)c1ccc(C(F)(F)F)cc1Cn1nc(OCC(F)(F)F)n(C)c1=O [IV-93],logP = 3.45^a)
23,CCCOc1nn(Cc2cc(Br)ccc2C(=O)OCC)c(=O)n1C [IV-66],logP = 3.38^a)
24,CCOC(=O)c1ccc([N+](=O)[O-])cc1Cn1nc(SC)n(C)c1=O [IV-46],logP = 2.82^a)
25,CCOC(=O)c1ccc(C(F)(F)F)cc1Cn1nc(N(C)C)n(C)c1=O [IV-85],logP = 2.79^a)

row,Compound,logP
1,CCOc1nn(Cc2cc(I)ccc2C(=O)OC)c(=O)n1C [IV-116],logP = 2.68^a)
2,COC(=O)c1ccc(Cl)c(Cn2nc(SC)n(C3CC3)c2=O)c1Cl [IV-19],m.p.: 131 °C logP = 2.70^a)
3,CCOC(=O)c1ccc(C(F)(F)F)cc1Cn1cnn(C)c1=O [IV-74],logP = 2.68^a)
4,CCOC(=O)c1ccc(C(F)(F)F)cc1Cn1nc(CC)n(OCC)c1=O [IV-48],logP = 3.38^a)
5,COC(=O)c1ccc(Cl)c(Cn2nc(OC(C)C)n(C)c2=O)c1Cl [IV-7],m.p.: 68 °C logP = 2.73^a)
6,CCOC(=O)c1ccc(Br)cc1CN1C(=O)CCC1=O [IV-60],logP = 2.44^a)
7,CCOC(=O)c1ccc(F)cc1Cn1nc(OCC)n(C2CC2)c1=O [IV-98],logP = 2.89^a)
8,CCOC(=O)c1ccc(C(F)(F)F)cc1Cn1cc(C(F)(F)F)c(=O)[nH]c1=O [IV-90],logP = 2.93^a)
9,CCOC(=O)c1ccc(Br)cc1Cn1nc2n(c1=O)CCC2 [IV-68],logP = 2.16^a)
10,CCOC(=O)c1ccc(C(F)(F)F)cc1CN1C(=O)c2ccccc2S1(=O)=O [IV-86],logP = 3.67^a)
11,COC(=O)c1ccc(Cl)c(Cn2nc(C3CC3)n(C3CC3)c2=O)c1Cl [IV-5],m.p.: 127 °C logP = 2.55^a)
12,CCOc1nn(Cc2c(Cl)ccc(C(=O)OC)c2Cl)c(=O)n1C [IV-4],m.p.: 120 °C logP = 2.38^a)
13,COC(=O)c1ccc(Cl)c(Cn2nc(OCC(F)(F)F)n(C3CC3)c2=O)c1Cl [IV-18],m.p.: 102 °C logP = 3.05^a)
14,CCOC(=O)c1ccc(C(F)(F)F)cc1Cn1nc(C)oc1=O [IV-92],logP = 3.04^a)
15,CCOC(=O)c1ccc(F)cc1Cn1nc(N(C)C)n(C)c1=O [IV-94],logP = 2.21^a)
16,CCOC(=O)c1ccc(Br)cc1CN1CCOC1=O [IV-72],logP = 2.36^a)
17,CCOC(=O)c1ccc(Cl)cc1Cn1nc(C(F)(F)F)n(C)c1=O [IV-43],logP = 3.31^a)
18,COC(=O)c1ccc(Cl)c(Cn2nc(OC)n(C)c2=O)c1Cl [IV-6],m.p.: 121 °C logP = 2.04^a)
19,CCOC(=O)c1ccc(S(C)(=O)=O)cc1Cn1nc(SC)n(C)c1=O [IV-89],logP = 1.82^a)
20,COC(=O)c1ccc(Cl)c(Cn2nc(OCC(F)(F)F)n(C)c2=O)c1Cl [IV-8],m.p.: 129 °C logP = 2.72^a)
21,CCOc1nn(Cc2c(Cl)ccc(C(=O)OC)c2Cl)c(=O)n1C1CC1 [IV-16],m.p.: 99 °C logP = 2.73^a)
22,CCOC(=O)c1ccc(C(F)(F)F)cc1Cn1nc(COC)n(C)c1=O [IV-78],logP = 2.60^a)
23,CCOC(=O)c1ccc(Cl)cc1Cn1nc(CC)n(OCC)c1=O [IV-44],logP = 3.14^a)
24,CCOC(=O)c1ccc(F)cc1Cn1nc(SC)n(C)c1=O [IV-37],logP = 2.45^a)
25,CCOC(=O)c1ccc(C(F)(F)F)cc1Cn1nc(OC(C)C)n(C)c1=O [IV-70],logP = 3.51^a)

row,Compound,logP
1,COC(=O)c1ccc(Cl)c(Cn2nc(Br)n(C)c2=O)c1Cl [IV-9],m.p.: 164 °C logP = 2.18^a)
2,CCOC(=O)c1ccc(Br)cc1Cn1nc(C(F)(F)F)n(C)c1=O [IV-35],logP = 3.40^a)
3,CCOn1c(CC)nn(Cc2c(Cl)ccc(C(=O)OC)c2Cl)c1=O [IV-22],m.p.: 85 °C logP = 2.58^a)
4,COC(=O)c1ccc(Cl)c(Cn2nc(C)n(C)c2=O)c1Cl [IV-13],m.p.: 146 °C logP = 1.65^a)
5,COC(=O)c1ccc(Cl)c(CN2CCN(C)C2=O)c1Cl [IV-23],logP = 1.98^a)
6,CCOC(=O)c1ccc(Br)cc1Cn1nc(OCC(F)(F)F)n(C)c1=O [IV-67],logP = 3.31^a)
7,COC(=O)c1ccc(S(C)(=O)=O)cc1Cn1nc(SC)n(C)c1=O [IV-114],logP = 1.53^a)
8,COC(=O)c1ccc(Cl)c(CN2C(=O)c3ccccc3S2(=O)=O)c1Cl [IV-25],m.p.: 157 °C logP = 2.94^a)
9,CCOC(=O)c1ccc(Br)cc1Cn1nc(Br)n(C)c1=O [IV-75],logP = 2.80^a)
10,COC(=O)c1ccc(Cl)c(CN2CCCN(C)C2=O)c1Cl [IV-24],logP = 2.07^a)
11,CCOC(=O)c1ccc(C(F)(F)F)cc1Cn1nc(Br)n(C)c1=O [IV-119],logP = 2.96^a)
12,CCOC(=O)c1ccc(C(F)(F)F)cc1Cn1nc(Br)n(C2CC2)c1=O [IV-79],logP = 3.35^a)
13,CCCOc1nn(Cc2cc(F)ccc2C(=O)OCC)c(=O)n1C [IV-95],logP = 2.96^a)
14,COC(=O)c1ccc(Cl)c(Cn2nc(OC)n(C3CC3)c2=O)c1Cl [IV-15],m.p.: 97 °C logP = 2.36^a)
15,COC(=O)c1ccc(Cl)c(Cn2nc3n(c2=O)CCCC3)c1Cl [IV-14],m.p.: 178 °C logP = 1.86^a)
16,CCOC(=O)c1ccc(Cl)cc1Cn1nc(SC)n(C)c1=O [IV-81],logP = 2.83^a)
17,CCOc1nn(Cc2cc(S(C)(=O)=O)ccc2C(=O)OC)c(=O)n1C [IV-115],logP = 1.59^a)
18,CCOC(=O)c1ccc(Br)cc1Cn1nc(SC)n(C)c1=O [IV-80],logP = 2.86^a)
19,CCOC(=O)c1ccc(Br)cc1Cn1nc2n(c1=O)CCCC2 [IV-69],logP = 2.41^a)
20,CCOC(=O)c1ccc(F)cc1Cn1nc(OC)n(C2CC2)c1=O [IV-97],logP = 2.50^a)
21,COC(=O)c1ccc(Cl)c(Cn2nc(C3CC3)n(C)c2=O)c1Cl [IV-11],m.p.: 106 °C logP = 2.16^a)
22,CCOC(=O)c1ccc(Br)cc1Cn1nc(OC(C)C)n(C)c1=O [IV-65],logP = 3.34^a)
23,CCCOC(=O)c1ccc(C(F)(F)F)cc1Cn1nc(OCC)n(C2CC2)c1=O [IV-50],logP = 3.91^a)
24,CCOC(=O)c1ccc([N+](=O)[O-])cc1Cn1nc(OCC)n(C2CC2)c1=O [IV-45],logP = 2.42^a)
25,CCOC(=O)c1ccc(C(F)(F)F)cc1Cn1nc(SC)n(C)c1=O [IV-49],logP = 3.02^a)

# Same assay, conditions: reversed-phase C18 HPLC column, pH 2
row,chromatographic logP,Compound
1,3.13,"Cn1c(C(F)(F)F)nn(-c2ccc(C(=O)C3C(=O)CCCC3=O)c(Cl)c2)c1=O [compound 2, 2-[4-(2,6-dioxocyclohexylcarbonyl)-3-chloro-phenyl]4-methyl-5-trifluoromethyl-2,4-dihydro-3H-1,2,4-triazol-3′-one]"

# Test: not given
# Conditions: not given
row,melting point,Compound
1,182 °C,"Cn1c(C(F)(F)F)nn(-c2ccc(C(=O)C3C(=O)CCCC3=O)c(Cl)c2)c1=O [compound 2, 2-[4-(2,6-dioxocyclohexylcarbonyl)-3-chloro-phenyl]4-methyl-5-trifluoromethyl-2,4-dihydro-3H-1,2,4-triazol-3′-one]"
2,207 °C,"Cn1c(C(F)(F)F)nn(Cc2c(Cl)ccc(C(=O)O)c2Cl)c1=O [III-3, 4-methyl-5-trifluoromethyl-2-(2,6-dichloro-3-carboxy-benzyl)-2,4-dihydro-3H-1,2,4-triazol-3-one]"
3,109 °C,"COC(=O)c1ccc(Cl)c(Cn2nc(C(F)(F)F)n(C)c2=O)c1Cl [IV-2, 4-methyl-5-trifluoromethyl-2-(2,6-dichloro-3-methoxycarbonyl-benzyl)-2,4-dihydro-3H-1.2.4-triazol-3-one]"
